This note sets out measurements from PMC3199867, “Targeting surface nucleolin with multivalent HB-19 and related Nucant pseudopeptides results in distinct inhibitory mechanisms depending on the malignant tumor cell type” (BMC Cancer, 2011).

One series deals with nucleophosmin. The series can be described thus: Binding of biotinylated Nucant to nucleophosmin on HuT 78 cells (avidin recovery, immunoblotting). Set-up: species or system human. The note with it: HuT 78 cells, 0, 1, 2, 4, 8 μM. The protocol: (§1) Two days after seeding, subconfluent cells (about 5 × 10^6 cells/75 cm^2 flask) were incubated (45 min, 20°C) with 5 μM of HB-19/Btn. After washing extensively in PBS containing 1 mM EDTA (PBS-EDTA), nucleus-free cell extracts were prepared in lysis buffer E. The complex formed between cell-surface expressed nucleolin and HB-19/Btn was isolated by purification of the extracts using NeutrAvidin agarose (100 μl; Pierce Biotechnology) in PBS-EDTA. After 3 hours at 6°C, the avidin-agarose samples were washed extensively with PBS-EDTA. The purified surface nucleolin was eluted in the electrophoresis sample buffer containing SDS and analyzed by 10% SDS-polyacrylamide gel electrophoresis (SDS-PAGE). […] All cells investigated in this study (MDA-MB-231, MDA-MB-435, LNCaP, HeLa, SW480, SW620, and T29) expressed the cell surface nucleolin assayed by this procedure.
(§2) Figure 9 Nucant pseudopeptides bind surface nucleolin at a higher affinity compared to binding to nucleophosmin. A. Recovery of surface nucleolin and associated proteins by using biotinylated Nucant. […] Purified material was then analyzed by SDS-PAGE and stained with Brilliant Blue G-Colloidal Concentrate staining (panel Staining). Similar samples were also analyzed by immunoblotting using anti-nucleolin mAb D3 (panel anti-nucleolin) or anti-nucleophosmin mAb EP1848Y (panel anti-nucleophosmin)(Methods). […]
(In general: A western blot detects proteins with antibodies after separation by electrophoresis.)

Another series has as its system HuT 78 cells. In words: Cell entry and localization of biotinylated pseudopeptides, immunofluorescence. It counts as cell-based, human. The conditions noted are these: HuT 78, 15 μM, 37°C, 5 hours, PFA/Triton fixation, anti-biotin immunofluorescence. How it is done: Figure 8 Nucant pseudopeptides are internalized into cells and accumulate in the cytoplasm without translocation to the nucleus. […] C. […] The nuclei stained with DAPI are shown on the right of each panel. Treatment of HuT 78 cells at 15 μM of biotinylated N3 or N7 leads to 25 and 40% cell death after 24 of culture, respectively.

The next series deals with HuT 78. In words: Cell death (trypan blue uptake). The note with it: HuT 78 cells, 15 μM, after 24 of culture. It counts as cell-based, human. The protocol: Human breast (MDA-MB-231, MDA-MB-435 [37]), prostate (LNCaP, from American Type Culture Collection, ATCC, Rockville, MD), and cervical (HeLa) epithelial cancer cells were grown in DMEM-glutamax medium (Gibco Invitrogen, Cergy-Pontoise, France) containing GlutaMAX™, 4.5 g/l glucose and supplemented with 10% heat-inactivated (56°C for 30 min) fetal bovine serum (FBS; Hyclone, Thermo Fisher Scientific, Inc). Human SW480 cells are derived from a grade 3-4 colon carcinoma, while the highly metastatic counterpart SW620 is established from the lymph node of a person. Both SW480 and SW620 cells (obtained from Francis Raul, IRCAD) are highly tumorigenic in nude mice. They were cultured in D-MEM, 10% FCS. The murine melanoma TIII cell line was obtained from Armelle Prévost-Blondel. Murine T29 lymphoma cells, obtained from Philippe Kastner (CNRS, Strasbourg), have been established from Ik^L/L tumors from mice carrying a hypomorphic mutation (Ik^L/L) in the Ikaros gene encoding a transcription factor that regulates lymphocyte differentiation, and acts also as a tumor suppressor in T lymphocytes. The T29 cells were cultured in RPMI medium containing 25 mM Hepes pH 7.6, 1 mM sodium pyruvate, and 10% FCS. Human leukemia cell lines, Jurkat (acute T cell leukemia), HuT 78 (cutaneous T lymphocyte), RAJI (Burkitt lymphoma), and HL60 (promyelocytic leukemia) were cultured in RPMI-1640 medium (Gibco) containing GlutaMAX™, and supplemented with 10% heat-inactivated FBS as described before. The wild-type Chinese hamster ovary cell line (CHO K1) was purchased from American Type Culture Collection (ATCC; Rockville, MD). The CHO LRP1-null cell line (CHO-13-5-1) was kindly provided by D. Strickland [47]. They were cultured in Ham's F12K medium. All cells were cultured with 10% (v/v) heat inactivated (56°C, 30 min) fetal bovine serum (FBS) (Roche Molecular Biochemicals, Indianapolis, IN) and 50 international units/mL penicillin-streptomycin (Invitrogen). Cell death was monitored conveniently by uptake of the trypan blue dye due to plasma membrane permeability of dying and/or dead cells. […]

Series [1] deals with surface nucleolin. In words: Binding of biotinylated Nucant to surface nucleolin on MDA-MB 231 cells (avidin recovery, immunoblotting). Set-up: species or system human. The note with it: data not presented. How it is done: as §1, §2
For series [2], the system named is surface nucleolin. The series can be described thus: Binding of biotinylated Nucant to surface nucleolin on HuT 78 cells (avidin recovery, immunoblotting). Set-up: species or system human. The note with it: HuT 78 cells, 0, 1, 2, 4, 8 μM. How it is done: as §1, §2

Where no end group is shown, it is not given here.

Take “biotinylated N7: biotinylated hexavalent N7 pseudopeptide (chain 1 KAKPGKAKPGKAKPG; chain 2 Lys-Pro-Arg; also: biotinylated (site not given here), hexavalent branched pseudopeptide, linkage not given here)”: the “concentration at which nucleophosmin binding occurs” value in the series on nucleophosmin was 8 µM. The “cell entry / intracellular localization” value with HuT 78 cells is “most of the signal is located in the cytoplasm, with almost no signal in the nuclei”. In the series with HuT 78, the cell death came out at 40%. For the same substance, the “concentration of maximum binding to surface nucleolin” value was found to be 3 µM in the series on surface nucleolin [1] and 4 µM in the series with surface nucleolin [2].
